Experimental data published in US10640495B2, “Heterocycle derivatives having TrkA inhibitory activity” (Shionogi & Co., Ltd., priority 2015, dated 2020).

These compounds were tested against human TrkA (Homo sapiens (Human), UniProt P04629) (assay: Human TrkA inhibition assay (Test Example 2)). Conditions: Table 153, human TrkA inhibition; read-out: IC50.
Format: biochemical
Experimental: Seven point five μL per well of human TrkA (PV3144, Lifetechnologies, final concentration: 1 nmol/L) suspended in the assay buffer (100 mmol/L 4-(2-hydroxyethyl)-1-piperazineethanesulfonic acid (HEPES), 10 mmol/L magnecium chloride, 0.003 vol % Brij-35, 0.004 vol % Tween20 and 1 mmol/L dithiothreitol (DTT)) was applied in a 384 well plate and the plate was pre-incubated for 15 min at room temperature with 0.4 μL of each compound (final concentration: 200 μmol/L-1 pmol/L) dissolved in DMSO. Then, fluorescent substrate (FL-peptide 27, 760424, PerkinElmer, final concentration: 1.5 μmol/L) and ATP (final concentration 500 μmol/L) dissolved in the assay buffer was added in each well. After the incubation of 120 min at 37° C., fifteen μL of termination buffer (100 mmol/L HEPES, 40 mmol/L ethylenediaminetetraacetic acid (EDTA), 10 mmol/L magnecium chloride, 0.003 vol % Brij-35, 0.004 vol % Tween20, 1 mmol/L DTT and 0.16 vol % Coating Reagent 3) was added in each well to stop the enzyme reaction. Fluorescent intensities (FI) of phosphorylated and non-phosphorylated fluorescent substrates were measured by LabChip EZReader II (Caliper LifeSciences, Inc.), and conversion ratio (CR) was calculated by the following formula-1. The CR in the well applied with DMSO alone was used as a negative control and the CR in the well without applying TrkA was used as a positive control. The inhibitory effect of each compound on TrkA phosphorylation was calculated by the following formula-2. CR (%)=(FI of phosphorylated substrate/(FI of phosphorylated substrate+FI of non-phosphorylated substrate))×100 (Formula-1) Phosphorylation inhibition (%)=(1−(CR with compound treatment−CR of positive control)/(CR of negative control−CR of positive control))×100 (Formula-2)
IC50 values (nmol/L) were determined by the logistic regression using the inhibition data in 10 points of 3-fold dilution series at a compound concentration range of 20 nmol/L to 1 pmol/L, or 10 points of 3-fold dilution series at the range of 2 μmol/L to 0.1 nmol/L, or 10 points of 3-fold dilution series at the range of 200 μmol/L to 10 nmol/L, or 15 points of 3-fold dilution series at the range of 200 μmol/L to 0.04 nmol/L.
The evaluation results of the compounds in the present invention are indicated as follows. IC50 values of 0 to 100 nM, 100 to 1000 nM and over 1000 nM were shown as “A”, “B” and “C”, respectively.

Chain of human TrkA (P04629 440-796): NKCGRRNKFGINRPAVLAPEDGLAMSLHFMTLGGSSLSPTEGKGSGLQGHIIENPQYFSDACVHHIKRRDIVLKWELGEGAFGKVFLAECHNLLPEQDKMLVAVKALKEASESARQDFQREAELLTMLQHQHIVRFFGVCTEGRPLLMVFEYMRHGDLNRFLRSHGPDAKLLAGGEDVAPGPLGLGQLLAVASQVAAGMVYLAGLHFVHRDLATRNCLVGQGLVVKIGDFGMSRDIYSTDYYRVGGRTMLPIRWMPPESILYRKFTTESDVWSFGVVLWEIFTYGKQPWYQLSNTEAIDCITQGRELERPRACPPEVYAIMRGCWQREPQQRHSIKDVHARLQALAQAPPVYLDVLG

| IC50 | SMILES |
| --- | --- |
| < 0.1 µM | COCCN1C[C@@H](NC(=O)Nc2c(C)c(-c3cnn(C)c3)nn2-c2ccc(F)cc2)[C@H](c2ccc(F)c(F)c2)O1 (racemic) [Compound I-87] |
| > 1 µM | COCCN1C[C@@H](NC(=O)Nc2c(C)c(-c3cnn(C)c3)nn2C2CC2)[C@H](c2ccc(F)c(F)c2)O1 (racemic) [Compound I-88] |
| < 0.1 µM | COCCN1C[C@@H](NC(=O)Nc2c(C)c(-c3cccc(N=S(C)(C)=O)c3)nn2-c2ccccc2)[C@H](c2ccc(F)c(F)c2)O1 (racemic) [Compound I-89] |
| < 0.1 µM | COCCN1C[C@@H](NC(=O)Nc2c(C)c(-c3cnn(C)c3)nn2-c2ccccc2)[C@H](c2ccnc(F)c2)O1 (racemic) [Compound I-91] |
| < 0.1 µM | COCCN1C[C@@H](NC(=O)Nc2c(C)c(-c3cnc(N=S(C)(C)=O)c(C)c3)nn2-c2ccccc2)[C@H](c2ccc(F)c(F)c2)O1 (racemic) [Compound I-92] |
| < 0.1 µM | CNc1ncc(-c2nn(-c3ccccc3)c(NC(=O)N[C@@H]3CN(CCOC)O[C@H]3c3ccnc(F)c3)c2C)cn1 (racemic) [Compound I-93] |
| > 1 µM | COCCN1C[C@@H](NC(=O)Nc2cc(-c3cnc(OC)c(C(=O)NC4CCOCC4)c3)nn2C)[C@H](c2ccnc(F)c2)O1 (racemic) [Compound I-94] |
| > 1 µM | CNC(=O)c1cc(-c2cc(NC(=O)N[C@@H]3CN(CCOC)O[C@H]3c3ccnc(F)c3)n(C)n2)cnc1OC (racemic) [Compound I-95] |
| < 0.1 µM | COCC[C@@H]1C[C@@H](NC(=O)Nc2c(C)c(-c3cnc4c(cnn4C)c3)nn2-c2ccccc2)[C@H](c2ccnc(F)c2)O1 (racemic) [Compound I-97] |
| < 0.1 µM | COCC[C@@H]1C[C@@H](NC(=O)Nc2c(C)c(-c3cnc4c(cnn4C)c3)nn2-c2ccccc2)[C@H](c2ccc(F)c(F)c2)O1 (racemic) [Compound I-99] |
| < 0.1 µM | CNC(=O)c1cc(-c2nn(-c3ccccc3)c(NC(=O)N[C@@H]3CN(CCOC)O[C@H]3c3ccnc(F)c3)c2C)cnc1OC (racemic) [Compound I-100] |
| < 0.1 µM | COCCN1C[C@@H](NC(=O)Nc2c(C)c(-c3cnc(OC)c(C(N)=O)c3)nn2-c2ccccc2)[C@H](c2cnc(F)c(F)c2)O1 (racemic) [Compound I-101] |
| < 0.1 µM | COCCN1C[C@@H](NC(=O)Nc2c(C)c(-c3cnc(OC)c(C(N)=O)c3)nn2-c2ccccc2)[C@H](c2cnc(OC)c(F)c2)O1 (racemic) [Compound I-102] |
| < 0.1 µM | COCCN1C[C@@H](NC(=O)Nc2c(C)c(-c3cnc(OC)c(C(=O)NC4CCS(=O)(=O)CC4)c3)nn2-c2ccccc2)[C@H](c2cnc(F)c(F)c2)O1 (racemic) [Compound I-103] |
| < 0.1 µM | COCCN1C[C@@H](NC(=O)Nc2c(C)c(-c3cnc(OC)c(C(=O)NC4CCS(=O)(=O)CC4)c3)nn2-c2ccccc2)[C@H](c2cnc(OC)c(F)c2)O1 (racemic) [Compound I-104] |
| < 0.1 µM | COCCN1C[C@@H](NC(=O)Nc2c(C)c(-c3cc(C(N)=O)c(=O)n(C)c3)nn2-c2ccccc2)[C@H](c2ccnc(F)c2)O1 (racemic) [Compound I-105] |
| < 0.1 µM | CNC(=O)c1cc(-c2nn(-c3ccccc3)c(NC(=O)N[C@@H]3CN(CCOC)O[C@H]3c3ccnc(F)c3)c2C)cn(C)c1=O (racemic) [Compound I-106] |
| < 0.1 µM | CCNC(=O)c1cc(-c2nn(-c3ccccc3)c(NC(=O)N[C@@H]3CN(CCOC)O[C@H]3c3ccnc(F)c3)c2C)cn(C)c1=O (racemic) [Compound I-107] |
| < 0.1 µM | COCCN1C[C@@H](NC(=O)Nc2c(C)c(-c3cnc(OC)c(C(N)=O)c3)nn2-c2ccccc2)[C@H](c2ccnc(F)c2)O1 (racemic) [Compound I-109] |

Same assay, conditions: human TrkA 1 nmol/L, ATP 500 μmol/L, 120 min at 37° C.; read-out: IC50 values (TrkA phosphorylation inhibition)

| IC50 | SMILES |
| --- | --- |
| 0.015 µM | COCC[C@@H]1C[C@@H](NC(=O)Nc2c(C)c(-c3cnc(C)nc3)nn2-c2ccccc2)[C@H](c2ccnc(F)c2)O1 (racemic) [Compound I-96] |
| 0.001 µM | COCCN1C[C@@H](NC(=O)Nc2c(C)c(-c3cc(C(=O)NC4CCOCC4)c(=O)n(C)c3)nn2-c2ccccc2)[C@H](c2ccnc(F)c2)O1 (racemic) [Compound I-108] |
